Patent US20160052923A1, “PIPERAZINE AND HOMOPIPERAZINE DERIVATIVES AS HIV […]” (priority 2013, published 2016)
Where two headings read alike, the source gives them in different places.

Tested on: HIV-1 LAI envelope single-round infectious reporter virus
Assay: Single-round infectious HIV-1 LAI luciferase reporter virus infection of MT2 cells
Type: cell-based
Conditions: Human immunodeficiency virus 1, MT2, 72 h
Description: • Virus production—Human embryonic Kidney cell line, 293T (HEK 293T), was propagated in Dulbecco's Modified Eagle Medium (Invitrogen, Carlsbad, Calif.) containing 10% fetal bovine serum (FBS, Sigma, St. Louis, Mo.). The human T-cell leukemia cell MT2 (AIDS Research and Reference Reagent Program, Cat. 237) was propagated in RPMI 1640 (Invitrogen, Carlsbad, Calif.) containing 10% fetal bovine serum (FBS, Hyclone, Logan, Utah) • Virus infection—Single-round infectious reporter virus was produced by co-transfecting HEK 293T cells with plasmide expressing the HIV-1 LAI envelope along with a plasmid containing an HIV-1 LAI proviral cDNA with the envelope gene replaced by a firefly luciferase reporter gene (Chen et al., Ref. 41). Transfections were performed using lipofectAMINE PLUS reagent as described by the manufacturer (Invitrogen, Carlsbad, Calif.).
• 1. MT2 cells were plated in black, 384 well plates at a cell density of 5×10^3 cells per well in 25 μl RPMI 1640 containing 10% FBS. • 2. Compound (diluted in dimethylsulfoxide and growth medium) was added to cells at 12.5 μl/well, so that the final assay concentration would be ≦50 nM. • 3. 12.5 μl of single-round infectious reporter virus in Dulbecco's Modified Eagle Medium was added to the plated cells and compound at an approximate multiplicity of infection (MOI) of 0.01, resulting in a final volume of 50 μl per well. • 4. Virus-infected cells were incubated at 37 degrees Celsius in a CO2 incubator and harvested 72 h after infection. • 5. Viral infection was monitored by measuring luciferase expression in the infected cells using a luciferase reporter gene assay kit (Steady-Glo, Promega, Madison, Wis.) as described by the manufacturer. Luciferase activity was then quantified by measuring luminescence using an EnVision Multilabel Plate Readers (PerkinElmer, Waltham, Mass.). • 6. The percent inhibition for each compound was calculated by quantifying the level of luciferase expression in cells infected in the presence of each compound as a percentage of that observed for cells infected in the absence of compound and subtracting such a determined value from 100. • 7. An EC50 provides a method for comparing the antiviral potency of the compounds of the invention. The effective concentration for fifty percent inhibition (EC50) was calculated with the Microsoft Excel Xlfit curve fitting software. For each compound, curves were generated from percent inhibition calculated at 10 different concentrations by using a four parameter logistic model (model 205). Table 1 is the key for the data in Table 2.

[1] = read-out: EC50 Group from Table 1

Row | Structure (SMILES) | EC50 [nM] | EC50 [1] [nM]
1 | COc1cnc(-n2cnc(C)n2)c2[nH]cc(C(=O)C(=O)N3CCN(C4=NCCc5ccccc54)CC3)c12 [Compound 1001] | 0.85 | < 500
2 | COc1cnc(-n2cnc(C)n2)c2[nH]cc(C(=O)C(=O)N3CCN(C4(c5ccccc5)CC4)CC3)c12 [Compound 1002] |  | > 500
3 | COc1cnc(-n2cnc(C)n2)c2[nH]cc(C(=O)C(=O)N3CCN(C4(c5ccccn5)CC4)CC3)c12 [Compound 1003] |  | > 500
4 | COc1cnc(-n2cnc(C(N)=O)n2)c2[nH]cc(C(=O)C(=O)N3CCN(c4nc5ccccn5n4)CC3)c12 [Compound 1004] |  | < 500
5 | CC(c1ccccc1)N1CCN(C(=O)C(=O)c2c[nH]c3c(-n4ccnn4)ncc(F)c23)CC1 (stereo not shown) [Compound 1005] |  | < 500
6 | O=C(C(=O)N1CCN(Cc2ccccn2)CC1)c1c[nH]c2c(-n3ccnn3)ncc(F)c12 [Compound 1006] |  | < 500
7 | O=C(C(=O)N1CCCN(Cc2ccccc2)CC1)c1c[nH]c2c(-n3ccnn3)ncc(F)c12 [Compound 1007] |  | < 500
8 | O=C(C(=O)N1CCCN(c2ccccn2)CC1)c1c[nH]c2c(-n3ccnn3)ncc(F)c12 [Compound 1008] | 89.4 | < 500
9 | O=C(C(=O)N1CCCN(c2nnnn2-c2ccccc2)CC1)c1c[nH]c2c(-n3ccnn3)ncc(F)c12 [Compound 1009] |  | < 500
10 | COc1cnc(-n2cnc(C)n2)c2[nH]cc(C(=O)C(=O)N3CCN(c4ccccc4-c4nc5ccccc5s4)CC3)c12 [Compound 1010] |  | < 500
11 | O=C(C(=O)N1CCN(c2cccc3ccccc23)CC1)c1c[nH]c2c(-n3ccnn3)ncc(F)c12 [Compound 2001] | 2.97 | < 500
12 | COc1cnc(-n2cnc(C)n2)c2[nH]cc(C(=O)C(=O)N3CCN(c4nccc5cccnc45)CC3)c12 [Compound 2002] |  | < 500
13 | COc1cnc(-n2cnc(C)n2)c2[nH]cc(C(=O)C(=O)N3CCN(c4cccc5ccncc45)CC3)c12 [Compound 2003] |  | < 500
14 | O=C(C(=O)N1CCN(c2cccc3cccnc23)CC1)c1c[nH]c2c(-n3ccnn3)ncc(F)c12 [Compound 2004] |  | < 500
15 | COc1cnc(-n2cnc(C)n2)c2[nH]cc(C(=O)C(=O)N3CCN(c4cccc5cccnc45)CC3)c12 [Compound 2005] |  | < 500
16 | COc1cnc(-n2cnc(C)n2)c2[nH]cc(C(=O)C(=O)N3CCN(c4ncnc5ncccc45)CC3)c12 [Compound 2006] |  | < 500
17 | COc1cnc(-n2ccnn2)c2[nH]cc(C(=O)C(=O)N3CCN(c4ncnc5ncccc45)CC3)c12 [Compound 2007] |  | < 500
18 | O=C(C(=O)N1CCN(c2ncnc3ncccc23)CC1)c1c[nH]c2c(-n3ccnn3)ncc(F)c12 [Compound 2008] | 1.24 | < 500
